What all share (assay type): biochemical
The target in experiment [1] is T1, IDH1^R132H homodimer enzyme (Homo sapiens, UniProt O75874, R132H).
T1 construct: purchased not specified
The experiment in a line: NADPH depletion assay, IDH1 R132H. In outline: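 IDH1 R132H enzyme (8 nM as diluted) in Tris-HCl pH 7.6 with 10 mM MgCl2, 0.001% Triton X-100 and 4 mM β-mercaptoethanol is preincubated 15 min at RT with compound. Substrate mix (12 uM NADPH, 3.4 mM α-ketoglutarate) is added for 60 min; remaining NAD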

In the next experiment the target is T2, IDH2^R172K (Homo sapiens, UniProt P48735, R172K).
T2 construct: purchased not specified
T2 sequence (P48735 40-452 R172K): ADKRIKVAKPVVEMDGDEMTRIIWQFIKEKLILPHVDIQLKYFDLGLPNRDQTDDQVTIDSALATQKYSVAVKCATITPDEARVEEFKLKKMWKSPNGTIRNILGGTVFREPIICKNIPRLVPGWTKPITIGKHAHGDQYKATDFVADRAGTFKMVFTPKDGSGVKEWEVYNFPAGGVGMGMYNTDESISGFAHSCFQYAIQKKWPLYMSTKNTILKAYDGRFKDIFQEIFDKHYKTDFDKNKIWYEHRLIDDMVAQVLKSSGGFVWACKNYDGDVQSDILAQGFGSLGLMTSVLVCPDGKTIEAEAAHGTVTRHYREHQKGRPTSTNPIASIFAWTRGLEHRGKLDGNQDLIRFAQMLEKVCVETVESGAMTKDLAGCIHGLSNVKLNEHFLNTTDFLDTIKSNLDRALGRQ
Briefly: NADPH depletion assay, IDH2 R172K. As for the experimental part: IDH mutated enzyme activity converting alpha-ketoglutarate to 2-hydroxyglutaric acid is measured using a NADPH depletion assay. In the assay the remaining cofactor is measured at the end of the reaction with the addition of a catalytic excess of diaphorase and resazurin, to generate a fluorescent signal in proportion to the amount of NADPH remaining. IDH1 WT enzyme as well as mutated isoforms IDH1^R132H, IDH1^R132C, and IDH^2R172K enzymes are commercially available proteins (see e.g. Sino Biological, Abcam, Active Motif or Creative BioMart).
IDH1^R132H homodimer enzyme are diluted to 8 nM, in 10 μL of Assay Buffer (150 mM NaCl, 50 mM Tris-HCl pH 7.6, 10 mM MgCl2, 0.001% Triton X-100, 4 mM β-mercaptoethanol); 0.2 uL of test compound, previously serially diluted 1 to 3, >10 experimental points from 1 mM in DMSO, is added and the mixture is incubated for 15 minutes at room temperature. The reaction is started with the addition of 10 μL of Substrate Mix (12 uM NADPH, 3.4 mM alpha-ketoglutarate in Assay Buffer) and the mixture is incubated for 60 minutes at room temperature. The reaction is terminated with the addition of 5 μl of Detection Buffer (100 μg/mL diaphorase, 30 μM resazurin, in IX Assay Buffer), and is incubated for 15 minute before reading on a ViewLux as platereader at Ex544/Em590.
Compounds are assayed for their activity against IDH2^R172K following the same assay as above with the following modifications: IDH2^R172K and alpha-ketoglutarate final concentrations in the Assay Buffer is 16 nM and 0.55 mM, respectively.

For another experiment, the target named is T3, IDH1^R132C (Homo sapiens, UniProt O75874, R132C).
T3 construct: purchased not specified
T3 sequence (O75874 whole entry R132C): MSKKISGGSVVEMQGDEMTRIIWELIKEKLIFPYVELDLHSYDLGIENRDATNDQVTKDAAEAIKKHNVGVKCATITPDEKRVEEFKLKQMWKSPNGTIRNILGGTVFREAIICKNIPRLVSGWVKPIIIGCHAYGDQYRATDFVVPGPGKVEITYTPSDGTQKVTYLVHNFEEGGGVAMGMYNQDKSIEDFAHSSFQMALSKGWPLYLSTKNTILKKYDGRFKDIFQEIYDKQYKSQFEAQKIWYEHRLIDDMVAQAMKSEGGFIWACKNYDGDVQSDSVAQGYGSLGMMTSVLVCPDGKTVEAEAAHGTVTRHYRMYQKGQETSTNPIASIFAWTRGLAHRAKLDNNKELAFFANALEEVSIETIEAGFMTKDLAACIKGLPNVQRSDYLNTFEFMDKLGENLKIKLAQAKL
The experiment in a line: NADPH depletion assay, IDH1 R132C. The procedure, abridged:
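IDH1 R132C (2 nM) preincubated 15 min at RT with compound in Tris-HCl pH 7.6/MgCl2 buffer, then 60 min RT with NADPH and 0.14 mM alpha-ketoglutarate. Remaining NADPH read by diaphorase/resazurin fluorescence (Ex544/Em590).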

T1 sequence (O75874 whole entry R132H): as the sequence (O75874 whole entry R132C) above, with C132H counted along it

By IC50 is commonly meant the concentration that inhibits the measured activity by half. Take `C[C@H](Nc1ncc2ccc(=O)n(Cc3ccc(C#N)cc3)c2n1)c1ccc(Cl)cc1` [cpd 27, 4-{[2-{[(1S)-1-(4-chlorophenyl)ethyl]amino}-7-oxopyrido[2,3-d]pyrimidin-8(7H)-yl]methyl}benzonitrile]: the 50% inhibitory concentration (IC50) was 1070 nM in experiment [1], 2600 nM against IDH2^R172K and 336 nM at IDH1^R132C.

As for `COC(=O)c1ccc([C@H](C)Nc2ncc3ccc(=O)n(Cc4ccc(F)cc4)c3n2)cc1` [cpd 6, methyl 4-[(1S)-1-{[8-(4-fluorobenzyl)-7-oxo-pyrido[2,3-d]pyrimidin-2-yl]amino}ethyl]benzoate], the values for the IC50 (in experiment [1]; on IDH2^R172K; against IDH1^R132C) were 3340 nM, 6650 nM and 1340 nM, respectively.

In the case of `COC(=O)c1ccc([C@H](C)Nc2ncc3ccc(=O)n(CC(C)(C)C)c3n2)cc1` [cpd 11, methyl 4-[(1S)-1-{[8-(2,2-dimethylpropyl)-7-oxo-pyrido[2,3-d]pyrimidin-2-yl]amino}ethyl]benzoate], the IC50 in experiment [1] came to 362 nM; at IDH2^R172K, 6100 nM; against IDH1^R132C, 181 nM.

For the molecule `C[C@H](Nc1ncc2ccc(=O)n(Cc3ccccc3)c2n1)c1ccc(Cl)cc1` [cpd 16, 8-benzyl-2-{[(1S)-1-(4-chlorophenyl)ethyl]amino}pyrido[2,3-d]pyrimidin-7(8H)-one], the IC50 in experiment [1] was determined as 1000 nM; against IDH2^R172K, 2700 nM; at IDH1^R132C, 460 nM.

As to `C[C@H](Nc1ncc2ccc(=O)n(Cc3cccc(O)c3)c2n1)c1ccc(Cl)cc1` [cpd 71, 2-{[(1S)-1-(4-chlorophenyl)ethyl]amino}-8-(3-hydroxybenzyl)pyrido[2,3-d]pyrimidin-7(8H)-one], the half-maximal inhibitory concentration (IC50) in experiment [1] stood at 2480 nM; at IDH2^R172K it was 4830 nM; against IDH1^R132C, 964 nM.

In the case of `CCC(C)n1c(=O)ccc2cnc(N[C@@H](C)c3ccc(CN4CCCC(F)(F)C4)cc3)nc21` (stereo partly drawn) [cpd 61, 8-(butan-2-yl)-2-{[(1S)-1-{4-[(3,3-difluoropiperidin-1-yl)methyl]phenyl}ethyl]amino}pyrido[2,3-d]pyrimidin-7(8H)-one], the IC50 in experiment [1] was determined as 71 nM; on IDH2^R172K it was 5020 nM; against IDH1^R132C, 38 nM.

For `C=CC(=O)N1CC=C(c2ccc([C@H](C)Nc3ncc4ccc(=O)n([C@@H](C)C(C)C)c4n3)nc2)CC1` [cpd 194, 2-{[(1S)-1-(1′-acryloyl-1′,2′,3′,6′-tetrahydro-3,4′-bipyridin-6-yl)ethyl]amino}-8-[(2S)-3-methylbutan-2-yl]pyrido [2,3-d]pyrimidin-7(8H)-one], the IC50 in experiment [1] was determined as 338 nM; against IDH2^R172K, 1790 nM; on IDH1^R132C it was 200 nM.

In the case of `CC(C)[C@H](C)n1c(=O)ccc2cnc(N[C@@H](C)c3cc4cc(Cl)ccc4[nH]c3=O)nc21` [cpd 172, 2-{[(1S)-1-(6-chloro-2-oxo-1,2-dihydroquinolin-3-yl)ethyl]amino}-8-[(2S)-3-methylbutan-2-yl]pyrido[2,3-d]pyrimidin-7(8H)-one], the IC50 was 179 nM in experiment [1], 3590 nM against IDH2^R172K and 56 nM against IDH1^R132C.

Turning to `C=CC(=O)N1CCC(NC(=O)c2ccc([C@H](C)Nc3ncc4ccc(=O)n(C(C)C)c4n3)cc2F)CC1` [cpd 192, N-(1-acryloylpiperidin-4-yl)-2-fluoro-4-[(1S)-1-{[7-oxo-8-(propan-2-yl)-7,8-dihydropyrido[2,3-d]pyrimidin-2-yl]amino}ethyl]benzamide], the IC50 in experiment [1] was found to be 227 nM; on IDH2^R172K it was 645 nM; on IDH1^R132C, 252 nM.

Turning to `C[C@H](Nc1ncc2ccc(=O)n(Cc3ccc(F)cc3)c2n1)c1ccc(Cl)cc1` [cpd 28, 2-{[(1S)-1-(4-chlorophenyl)ethyl]amino}-8-(4-fluorobenzyl)pyrido[2,3-d]pyrimidin-7(8H)-one], the half-inhibitory concentration (IC50) was found to be 1480 nM in experiment [1], 2510 nM on IDH2^R172K and 590 nM on IDH1^R132C.

In the case of `CC(C)[C@H](C)n1c(=O)ccc2cnc(N[C@@H](C)c3ccc(N4CCN(C(=O)OCc5ccccc5)CC4)c(F)c3)nc21` [cpd 178, Benzyl 4-{2-fluoro-4-[(1S)-1-({8-[(2S)-3-methylbutan-2-yl]-7-oxo-7,8-dihydropyrido[2,3-d]pyrimidin-2-yl}amino)ethyl]phenyl}piperazine-1-carboxylate], the IC50 in experiment [1] turned out to be 46 nM; on IDH2^R172K, 5020 nM; against IDH1^R132C it was 30 nM.

As for `C[C@H](Nc1ncc2ccc(=O)n(Cc3ccccc3F)c2n1)c1ccc(Cl)cc1` [cpd 22, 2-{[(1S)-1-(4-chlorophenyl)ethyl]amino}-8-(2-fluorobenzyl)pyrido[2,3-d]pyrimidin-7(8H)-one], the half-inhibitory concentration (IC50) in experiment [1] was 451 nM; against IDH2^R172K it was 2990 nM; on IDH1^R132C, 195 nM.

Regarding `CCn1c(=O)ccc2cnc(N[C@@H](C)c3ccc(Cl)cc3)nc21` [cpd 14, 2-{[(1S)-1-(4-chlorophenyl)ethyl]amino}-8-ethylpyrido[2,3-d]pyrimidin-7(8H)-one], the IC50 in experiment [1] was determined as 1740 nM; on IDH2^R172K, 5730 nM; against IDH1^R132C, 850 nM.

As to `COc1cccc(Cn2c(=O)ccc3cnc(N[C@@H](C)c4ccc(Cl)cc4)nc32)c1` [cpd 30, 2-{[(1S)-1-(4-chlorophenyl)ethyl]amino}-8-(3-methoxybenzyl)pyrido[2,3-d]pyrimidin-7(8H)-one], the figures for the concentration for half-maximal inhibition (IC50) (in experiment [1]; against IDH2^R172K; at IDH1^R132C) were 1340 nM, 2520 nM and 406 nM, respectively.

As for `C[C@H](Nc1ncc2ccc(=O)n(CC3CC3)c2n1)c1ccc(Cl)cc1` [cpd 20, 2-{[(1S)-1-(4-chlorophenyl)ethyl]amino}-8-(cyclopropylmethyl)pyrido[2,3-d]pyrimidin-7(8H)-one], the IC50 in experiment [1] was determined as 740 nM; against IDH2^R172K it was 5020 nM; on IDH1^R132C it was 332 nM.

With `CC(C)Cn1c(=O)ccc2cnc(N[C@@H](C)c3ccc(CN4CCC(F)(F)CC4)cc3)nc21` [cpd 95, 2-{[(1S)-1-{4-[(4,4-difluoropiperidin-1-yl)methyl]phenyl}ethyl]amino}-8-(2-methylpropyl)pyrido[2,3-d]pyrimidin-7(8H)-one], the IC50 in experiment [1] was determined as 425 nM; against IDH2^R172K, 5160 nM; against IDH1^R132C it was 162 nM.

As to `C[C@H](Nc1ncc2ccc(=O)n(Cc3cccc(C(F)(F)F)c3)c2n1)c1ccc(Cl)cc1` [cpd 24, 2-{[(1S)-1-(4-chlorophenyl)ethyl]amino}-8-[3-(trifluoromethyl)benzyl]pyrido[2,3-d]pyrimidin-7(8H)-one], the IC50 in experiment [1] came out at 3530 nM; against IDH2^R172K, 2960 nM; against IDH1^R132C it was 1720 nM.

For the molecule `CC(C)[C@H](C)n1c(=O)ccc2cnc(N[C@@H](C)c3ccc(C4=CCN(C(=O)OC(C)(C)C)CC4)cc3)nc21` [cpd 167, tert-butyl 4-{4-[(1S)-1-({8-[(2S)-3-methylbutan-2-yl]-7-oxo-7,8-dihydropyrido[2,3-d]pyrimidin-2-yl}amino)ethyl]phenyl}-3,6-dihydropyridine-1(2H)-carboxylate], the half-maximal inhibitory concentration (IC50) in experiment [1] turned out to be 30 nM; on IDH2^R172K it was 2560 nM; against IDH1^R132C it was 23 nM.

As to `CC[C@@H](C)n1c(=O)ccc2cnc(N[C@@H](C)c3ccc(CN4CCCC(F)(F)C4)cc3)nc21` [cpd 149, 8-[(2R)-butan-2-yl]-2-{[(1S)-1-{4-[(3,3-difluoropiperidin-1-yl)methyl]phenyl}ethyl]amino}pyrido[2,3-d]pyrimidin-7(8H)-one], the 50% inhibitory concentration (IC50) in experiment [1] was determined as 85 nM; against IDH2^R172K, 3330 nM; against IDH1^R132C, 48 nM.

With `CC(Nc1ncc2ccc(=O)n(Cc3ccccc3F)c2n1)c1ccc(CN2CCC(F)(F)CC2)cc1` (stereo not drawn) [cpd 97, 2-[(1-{4-[(4,4-difluoropiperidin-1-yl)methyl]phenyl}ethyl)amino]-8-(2-fluorobenzyl)pyrido[2,3-d]pyrimidin-7(8H)-one], the 50% inhibitory concentration (IC50) was 524 nM in experiment [1], 5030 nM on IDH2^R172K and 323 nM at IDH1^R132C.

The values are drawn from patent US12018023B2 (NERVIANO MEDICAL SCIENCES S.R.L., priority 2018, dated 2024).
